From patent US11136301B2, “Broad spectrum antiviral compounds and uses thereof” (The Regents Of The University Of California, priority 2015, dated 2021)
Where two headings read alike, the source gives them in different places.

Key:
[1] = test system: wild-type HIV-1 (HIV-1LAI) in H9 cells (non-permissive); assay: microbe, parasite or virus in culture; assay type: cell-based
[2] = test system: wild-type HIV-1 (HIV-1LAI) in MT-4 cells (permissive); assay: Antiviral activity assay: wild-type HIV-1 in permissive MT4 cells, reverse transcriptase activity in culture supernatants; assay type: cell-based
[3] = Human immunodeficiency virus 1, H9, read-out: Antiviral activity (IC50 μM) H9, Table 2, wild-type HIV-1, non-permissive H9 cells
[4] = Human immunodeficiency virus 1, H9, read-out: Antiviral activity (IC50 μM) H9 Cells, Table 4, wild-type HIV-1, non-permissive H9 cells
[5] = Human immunodeficiency virus 1, H9, read-out: Antiviral activity (IC50 μM) H9 Cells, Table 7, wild-type HIV-1, non-permissive H9 cells
[6] = Human immunodeficiency virus 1, H9, read-out: Antiviral activity (IC50 μM) H9 cells, Table 5, wild-type HIV-1, non-permissive H9 cells
[7] = Human immunodeficiency virus 1, H9, read-out: Antiviral activity (IC50 μM) H9 cells, Table 8, wild-type HIV-1, non-permissive H9 cells
[8] = Human immunodeficiency virus 1, H9, read-out: Antiviral activity (IC50 μM) H9 cells, wild-type HIV-1 (HIV-1LAI), H9 cells (non-permissive), RT activity in culture supernatants, compounds 1 to 50 μM
[9] = Human immunodeficiency virus 1, MT4, Table 2, wild-type HIV-1, permissive MT4 cells, read-out: Antiviral activity (IC50 μM) MT4
[10] = Human immunodeficiency virus 1, MT4, wild-type HIV-1 (HIV-1LAI), MT4 cells (permissive), RT activity in culture supernatants, compounds 1 to 50 μM, read-out: Antiviral activity (IC50 μM) MT4 cells
[11] = Human immunodeficiency virus 1, H9, read-out: IC50, anti-HIV-1 activity, non-permissive H9 cells

| Structure (SMILES) | IC50 [1, 3] [µM] | IC50 [1, 4] [µM] | IC50 [1, 5] [µM] | IC50 [1, 6] [µM] | IC50 [1, 7] [µM] | IC50 [1, 8] [µM] | IC50 [2, 9] [µM] | IC50 [2, 10] [µM] | IC50 [1, 11] [µM] | IC50 ([1]; read-out: Antiviral activity (IC50 μM) H9 cells, Table 5, wild-type HIV-1, non-permissive H9 cells) [µM] | IC50 ([1]; read-out: Antiviral activity (IC50 μM) H9 cells, Table 8, wild-type HIV-1, non-permissive H9 cells) [µM] | IC50 ([1]; read-out: Antiviral activity (IC50 μM) H9 cells, wild-type HIV-1 (HIV-1LAI), H9 cells (non-permissive), RT activity in culture supernatants, compounds 1 to 50 μM) [µM] |
| --- | --- | --- | --- | --- | --- | --- | --- | --- | --- | --- | --- | --- |
| COc1ccccc1-n1cc(-c2ccccc2S(=O)(=O)c2ccc([N+](=O)[O-])cc2)nn1 [Compound 2ay, 1-(2-Methoxyphenyl)-4-(2-((4-nitrophenyl)sulfonyl)phenyl)-1H-1,2,3-triazole] | 13.8 | 13.8 | 13.8 | 13.8 | 13.8 | 13.8 | > 50 | > 50 | – | – | – | – |
| COC(=O)c1ccc(Sc2ccccc2-c2cn(-c3ccccc3OC)nn2)cc1 [Compound 2bx, Methyl 4-((2-(1-(2-methoxyphenyl)-1H-1,2,3-triazol-4-yl)phenyl)thio)benzoate] | > 50 | – | – | > 50 | > 50 | > 50 | > 50 | > 50 | – | – | – | – |
| COC(=O)c1ccc(S(=O)(=O)c2ccccc2-c2cn(-c3ccccc3OC)nn2)cc1 [Compound 2by, Methyl 4-((2-(1-(2-methoxyphenyl)-1H-1,2,3-triazol-4-yl)phenyl)sulfonyl)benzoate] | > 50 | – | – | > 50 | > 50 | > 50 | > 50 | > 50 | – | – | – | – |
| COc1ccc(S(=O)(=O)c2ccccc2-c2cn(-c3ccccc3OC)nn2)cc1 [Compound 2cy, 1-(2-Methoxyphenyl)-4-(2-((4-methoxyphenyl)sulfonyl)phenyl)-1H-1,2,3-triazole] | 4.3 | 4.3 | 4.3 | 4.3 | 4.3 | 4.3 | > 50 | > 50 | – | – | – | – |
| COc1ccccc1-n1cc(-c2ccccc2S(=O)(=O)c2ccc(C(F)(F)F)cc2)nn1 [Compound 2dy, 1-(2-Methoxyphenyl)-4-(2-((4-(trifluoromethyl)phenyl)sulfonyl)phenyl)-1H-1,2,3-triazole] | 4.8 | 4.8 | 4.8 | 4.8 | 4.8 | 4.8 | > 50 | > 50 | – | – | – | – |
| COc1ccccc1-n1cc(-c2ccccc2Sc2ccc(N)cc2)nn1 [Compound 2ex, 4-((2-(1-(2-Methoxyphenyl)-1H-1,2,3-triazol-4-yl)phenyl)thio)aniline] | 2.5 | 7.5 | 2.5 | 2.5 | 2.5 | 2.5 | > 50 | > 50 | 1 to 3 | – | – | – |
| COc1ccccc1-n1cc(-c2ccccc2Sc2ccc(C(=O)O)cc2)nn1 [Compound 2fx, 4-((2-(1-(2-Methoxyphenyl)-1H-1,2,3-triazol-4-yl)phenyl)thio)benzoic Acid] | 1 | 1 | 1 | 1 | 1 | 1 | > 50 | > 50 | 1 to 3 | – | – | – |
| COc1ccccc1-n1cc(-c2ccccc2S(=O)(=O)c2ccc(C(=O)O)cc2)nn1 [Compound 2fy, 4-((2-(1-(2-Methoxyphenyl)-1H-1,2,3-triazol-4-yl)phenyl)sulfonyl)benzoic acid] | 8.2 | 8.2 | 8.2 | 8.2 | 8.2 | 8.2 | > 50 | > 50 | – | – | – | – |
| COc1cccc(-n2cc(-c3ccccc3Sc3ccc([N+](=O)[O-])cc3)nn2)c1OC [Compound 3ax, 1-(2,3-Dimethoxyphenyl)-4-(2-((4-nitrophenyl)thio)phenyl)-1H-1,2,3-triazole] | 1.1 | 1.1 | 1.1 | 1.1 | 1.1 | 1.1 | > 50 | > 50 | 1 to 3 | – | – | – |
| COc1cccc(-n2cc(-c3ccccc3S(=O)(=O)c3ccc([N+](=O)[O-])cc3)nn2)c1OC [Compound 3ay, 1-(2,3-Dimethoxyphenyl)-4-(2-((4-nitrophenyl)sulfonyl)phenyl)-1H-1,2,3-triazole] | > 50 | – | – | > 50 | > 50 | > 50 | > 50 | > 50 | – | – | – | – |
| COC(=O)c1ccc(Sc2ccccc2-c2cn(-c3cccc(OC)c3OC)nn2)cc1 [Compound 3bx, Methyl 4-((2-(1-(2,3-dimethoxyphenyl)-1H-1,2,3-triazol-4-yl)phenyl)thio)benzoate] | 8 | 8 | 8 | 8 | 8 | 8 | > 50 | > 50 | – | – | – | – |
| COC(=O)c1ccc(S(=O)(=O)c2ccccc2-c2cn(-c3cccc(OC)c3OC)nn2)cc1 [Compound 3by, Methyl 4-((2-(1-(2,3-dimethoxyphenyl)-1H-1,2,3-triazol-4-yl)phenyl)sulfonyl)benzoate] | 4.7 | 4.7 | 4.7 | 4.7 | 4.7 | 4.7 | > 50 | > 50 | – | – | – | – |
| COc1ccc(S(=O)(=O)c2ccccc2-c2cn(-c3cccc(OC)c3OC)nn2)cc1 [Compound 3cy, 1-(2,3-Dimethoxyphenyl)-4-(2-((4-methoxyphenyl)sulfonyl)phenyl)-1H-1,2,3-triazole] | > 50 | – | – | > 50 | > 50 | > 50 | > 50 | > 50 | – | – | – | – |
| COc1cccc(-n2cc(-c3ccccc3Sc3ccc(C(F)(F)F)cc3)nn2)c1OC [Compound 3dx, 1-(2,3-Dimethoxyphenyl)-4-(2-((4-(trifluoromethyl)phenyl)thio)phenyl)-1H-1,2,3-triazole] | 1.9 | 1.9 | 1.9 | 1.9 | 1.9 | 1.9 | > 50 | > 50 | 1 to 3 | – | – | – |
| COc1cccc(-n2cc(-c3ccccc3S(=O)(=O)c3ccc(C(F)(F)F)cc3)nn2)c1OC [Compound 3dy, 1-(2,3-Dimethoxyphenyl)-4-(2-((4-(trifluoromethyl)phenyl)sulfonyl)phenyl)-1H-1,2,3-triazole] | > 50 | – | – | > 50 | > 50 | > 50 | > 50 | > 50 | – | – | – | – |
| COc1cccc(-n2cc(-c3ccccc3S(=O)(=O)c3ccc(N)cc3)nn2)c1OC [Compound 3ey, 4-((2-(1-(2,3-Dimethoxyphenyl)-1H-1,2,3-triazol-4-yl)phenyl)sulfonyl)aniline] | 12.4 | 12.4 | 12.4 | 12.4 | 12.4 | 12.4 | > 50 | > 50 | – | – | – | – |
| COc1cccc(-n2cc(-c3ccccc3Sc3ccc(C(=O)O)cc3)nn2)c1OC [Compound 3fx, 4-((2-(1-(2,3-Dimethoxyphenyl)-1H-1,2,3-triazol-4-yl)phenyl)thio)benzoic Acid] | 2.8 | 2.8 | 2.8 | 2.8 | 2.8 | 2.8 | > 50 | > 50 | 1 to 3 | – | – | – |
| COc1cccc(-n2cc(-c3ccccc3S(=O)(=O)c3ccc(C(=O)O)cc3)nn2)c1OC [Compound 3fy, 4-((2-(1-(2,3-Dimethoxyphenyl)-1H-1,2,3-triazol-4-yl)phenyl)sulfonyl)benzoic Acid] | 1.4 | 1.4 | 1.4 | 1.4 | 1.4 | 1.4 | > 50 | > 50 | 1 to 3 | – | – | – |
| COc1ccc(-n2cc(-c3ccccc3S(=O)(=O)c3ccc([N+](=O)[O-])cc3)nn2)c(OC)c1 [Compound 4ay, 1-(2,4-Dimethoxyphenyl)-4-(2-((4-nitrophenyl)sulfonyl)phenyl)-1H-1,2,3-triazole] | > 50 | – | – | > 50 | > 50 | > 50 | > 50 | > 50 | – | – | – | – |
| COc1ccc(Sc2ccccc2-c2cn(-c3c(F)cccc3OC)nn2)cc1 [Compound 7cx, 1-(2-Fluoro-6-methoxyphenyl)-4-(2-((4-methoxyphenyl)thio)phenyl)-1H-1,2,3-triazole] | – | – | – | > 50 | > 50 | > 50 | – | – | – | – | – | – |
| COc1cccc(F)c1-n1cc(-c2ccccc2Sc2ccc(C(F)(F)F)cc2)nn1 [Compound 7dx, 1-(2-Fluoro-6-methoxyphenyl)-4-(2-((4-(trifluoromethyl)phenyl)thio)phenyl)-1H-1,2,3-triazole] | – | – | – | 10 | 10 | 10 | – | – | – | – | – | – |
| COc1cccc(F)c1-n1cc(-c2ccccc2Sc2ccc(C(=O)O)cc2)nn1 [Compound 7gx, 2-Hydroxy-N,N,N-trimethylethanaminium 4-((2-(1-(2-fluoro-6-methoxyphenyl)-1H-1,2,3-triazol-4-yl)phenyl)thio)benzoate] | – | – | – | – | – | – | – | – | – | > 50 | > 50 | > 50 |
